Read-outs that look alike come from different tables or passages of the source.
Assays:
[1] = test system: AIDS-associated NHL
Protocol: The daily dose is diluted in 1000 cc of 0.9% Sodium Chloride Injection, USP, or 5% Dextrose Injection, USP, for infusion over 24 hours.

[2] = test system: advanced NHL; conditions: cited from earlier work
[3] = stability of diluted infusion solutions; type: physicochemical; conditions: in 0.9% Sodium Chloride Injection or 5% Dextrose Injection
[4] = in vivo; cited from earlier work
[5] = test system: AS283 cells
Protocol: (§1) Both human tumor cell lines were maintained in RPMI 1640 medium plus 10% fetal calf serum. They were seeded in 15-ml rubber-stoppered vials containing 2 μCi of (^14C) glucose and 2 ml of tissue culture media. […] On days 6, 9 and 12, the vials were removed from the incubator and evaluated radiometrically for the amount of ^14CO2 produced. Inhibition of conversion of (^14C) glucose to ^14CO2 is a reliable index of cytotoxicity (Von Hoff et al., Cancer Res. 45:4032-4038, 1985).

[6] = test system: Raji line lymphoblast-like cells
Protocol: as §1

Structure (SMILES)	response to previous treatment ([1]; same patient, before gallium nitrate)	drug-related adverse effects ([1]; 300 mg/sq m/day for 7 days iv, two courses)	size of nodes after first course ([1]; 300 mg/sq m/day for 7 days, intravenous infusion, baseline nodes 9.0×9.0 cm and 3.0×2.0 cm)	infraclavicular node after second course ([1]; second course three weeks later, baseline 9.0×9.0 cm)	tolerability and efficacy ([2]; HIV negative patients with advanced NHL)	myelosuppression or immunosuppression ([2]; human, in vivo)	stability of diluted solution ([3]; refrigeration (2-8° C.))	stability of diluted solution ([3]; room temperature (15-30° C.))	blood-brain barrier passage [4]	% SURVIVAL AS283 ([5]; final concentration 1 mcg/ml)	% SURVIVAL AS283 ([5]; final concentration 10 mcg/ml)	% SURVIVAL AS283 ([5]; final concentration 50 mcg/ml)	% SURVIVAL AS283 ([5]; final concentration 100 mcg/ml)	% SURVIVAL RAJI ([6]; final concentration 1 mcg/ml)	% SURVIVAL RAJI ([6]; final concentration 10 mcg/ml)	% SURVIVAL RAJI ([6]; final concentration 100 mcg/ml)
CC(/C=N/NC(=N)N)=N\NC(=N)N [mitoguazone]	essentially unresponsive															
O=[N+]([O-])[O-].O=[N+]([O-])[O-].O=[N+]([O-])[O-].[Ga+3] [Gallium Nitrate, gallium nitrate]		not accompanied by apparent drug-related adverse effects	decreased in size	not palpable at all	well tolerated and effective	little or no myelosuppression or immunosuppression	7 days	2 days	crosses the blood-brain barrier	99%	122%	58%	0%	102%	114%	33%
